Laboratory results from PMC3466212, “Novel AChE Inhibitors for Sustainable Insecticide Resistance Management” (PLoS ONE, 2012).

Tests used:
[1] = test system: C. pipiens Slab strain larvae; experiment: Larval bioassay, Slab strain (OP-susceptible); conditions: for Mortality at 300 µM, Slab: fourth-instar larvae, 24 hours exposure
Source text: Three C. pipiens strains were used: the susceptible reference Slab strain, homozygous for ace-1 ^S [39], the resistant reference SR strain, carrying the genetical background of Slab but homozygous for the G119S mutation, allele ace-1 ^R [21] and the Ducos strain, carrying the genetical background of Slab but homozygous for an ace-1 duplication, with one ace-1^S and ace-1^R copy in tandem. Culex pipiens heterozygous larvae (Slab×SR) were obtained by crossing Slab males and SR females. Two A. gambiae reference strains (S molecular form) were used: the susceptible strain Kisumu, homozygous for ace-1 ^S, collected in Kenya in 1953 and maintained since then under laboratory conditions and the resistant Acerkis strain, carrying the genetical background of Kisumu but homozygous for an ace-1^R allele from a population collected in Bobo-Dioulasso, Burkina Faso [41].
Insecticidal activity was determined by performing bioassays on fourth-instar larvae as described in [42]. Each compound was dissolved in ethanol. Propoxur (CX) and chlorpyrifos (OP) were used as references. For each compound, we first tested mortality after a 24-hour exposure at 300 µM. […] Mortality data were analyzed by the log-probit program. This program takes into account natural mortality and provides lethal doses (LD) and slopes for each mortality line; it also computes resistance ratios (RR) for each LD, with 95% confidence intervals.

[2] = test system: C. pipiens SR strain larvae; experiment: Larval bioassay, SR strain (OP-resistant); conditions: for Mortality at 300 µM, SR: fourth-instar larvae, 24 hours exposure
Source text: Three C. pipiens strains were used: the susceptible reference Slab strain, homozygous for ace-1 ^S [39], the resistant reference SR strain, carrying the genetical background of Slab but homozygous for the G119S mutation, allele ace-1 ^R [21] and the Ducos strain, carrying the genetical background of Slab but homozygous for an ace-1 duplication, with one ace-1^S and ace-1^R copy in tandem. Culex pipiens heterozygous larvae (Slab×SR) were obtained by crossing Slab males and SR females.
Insecticidal activity was determined by performing bioassays on fourth-instar larvae as described in [42]. Each compound was dissolved in ethanol. Propoxur (CX) and chlorpyrifos (OP) were used as references. For each compound, we first tested mortality after a 24-hour exposure at 300 µM. […] Mortality data were analyzed by the log-probit program.

G119S AChE1 = target: T1, G119S AChE1 (Culex pipiens, UniProt Q86GC8, G247S); experiment: biochemical; type: biochemical; conditions: recombinant OP-insensitive G119S C. pipiens AChE1; 15 min incubation; acetylthiocholine; read-out: IC50 G119S
T1 construct: made in house; host or cells: Drosophila S2 cells
Experimental: Production of C. pipiens WT and mutated AChE1s in Drosophila S2 cells was already described. The chemical library (ChemBridge, 3,000 compounds) screening was performed in duplicate on G119S recombinant AChE1. Chemicals were made soluble in ethanol or dimethylsulphoxide (DMSO), and then diluted at 300 µM in ethanol for storage. […] PTF analogs were analyzed in dose-response experiments (10-fold serial dilutions from 3 mM to 30 nM), using recombinant WT and G119S AChE1 or mosquito head extracts (heads cut from frozen mosquitoes, homogenized in 400 µl PB containing 1% Triton X-100 and cleared by centrifugation at 9,000×g for 3 min). Depending on compound availability, two to five replicates were performed with distinct batches of enzyme. […] IC50 was estimated by nonlinear least square regression. IC50 was also measured on AChE1 from susceptible and resistant mosquito larvae extracts.

WT AChE1 = WT AChE1 (Culex pipiens, UniProt Q86GC8); experiment: AChE assay (Ellman), dose-response on recombinant WT AChE1; type: biochemical; set-up: made in house; host or cells: Drosophila S2 cells; conditions: recombinant wild-type C. pipiens AChE1; 15 min incubation; acetylthiocholine; read-out: IC50 WT
Experimental: Production of C. pipiens WT and mutated AChE1s in Drosophila S2 cells was already described. The chemical library (ChemBridge, 3,000 compounds) screening was performed in duplicate on G119S recombinant AChE1. Chemicals were made soluble in ethanol or dimethylsulphoxide (DMSO), and then diluted at 300 µM in ethanol for storage. Compounds (30 µM final concentration) were incubated for 15 min at room temperature with 100 µl of G119S recombinant AChE1 then 100 µl of substrate (acetylthiocholine, 1.6 mM, Sigma-Aldrich) was added and the residual activity was quantified by measuring the optical density at 412 nm, as described by Ellman et al.. PTF analogs were analyzed in dose-response experiments (10-fold serial dilutions from 3 mM to 30 nM), using recombinant WT and G119S AChE1 or mosquito head extracts (heads cut from frozen mosquitoes, homogenized in 400 µl PB containing 1% Triton X-100 and cleared by centrifugation at 9,000×g for 3 min). Depending on compound availability, two to five replicates were performed with distinct batches of enzyme. […] IC50 was estimated by nonlinear least square regression. IC50 was also measured on AChE1 from susceptible and resistant mosquito larvae extracts.

SMILES	mortality at 300 µM ([1]; Culex pipiens, 24 h, read-out: Mortality at 300 µM, Slab)	mortality at 300 µM ([2]; Culex pipiens, 24 h, read-out: Mortality at 300 µM, SR)	IC50 (G119S AChE1)	Mortality at 300 µM, Slab [1]	Mortality at 300 µM, SR [2]	IC50 (WT AChE1)
Nc1c2c(nc3ccccc13)CCCC2 [Tacrine, reference compound]	85%	95%	–	–	–	–
Cc1ccc(C=C2C(=O)NC(=S)N(c3ccc(Br)cc3)C2=O)o1 [PTF-37]	–	–	142 µM	0%	35%	2120 µM
Cc1ccc(C=C2C(=O)NC(=O)N(c3ccc(C)c(C)c3)C2=O)o1 [PTF-7]	–	–	35 µM	100%	100%	424 µM
CCN(CC)c1ccc(C=C2C(=O)N(C)C(=O)N(C)C2=O)o1 [PTF-42]	–	–	1040 µM	0%	0%	720 µM
O=C1NC(=O)N(c2ccccc2)C(=O)C1=Cc1ccc(-c2ccccc2C(=O)O)o1 [PTF-59]	–	–	18.5 µM	0%	0%	45.7 µM
CCCCN1C(=O)C(=Cc2ccc(C)o2)C(=O)NC1=S [PTF-23]	–	–	15.5 µM	24%	60%	12.1 µM
CN1C(=O)C(=Cc2ccc(N3CCCCC3)o2)C(=O)N(C)C1=O [PTF-49]	–	–	65.5 µM	13%	0%	97 µM
Cc1ccc(C=C2C(=O)NC(=O)N(Cc3ccco3)C2=O)o1 [PTF-16]	–	–	37 µM	80%	100%	260 µM
CC(C)(C)N=C1NC(=O)C(=Cc2ccco2)C(=O)N1c1ccccc1 [PTF-65]	–	–	22 µM	0%	0%	37 µM
CN1C(=O)C(=Cc2ccc(-c3ccc4c(c3)COC4=O)o2)C(=O)N(C)C1=O [PTF-53]	–	–	5.6 µM	0%	0%	0.6 µM
CN1C(=O)C(=Cc2ccc(N(C)C)o2)C(=O)N(C)C1=O [PTF-41]	–	–	132 µM	20%	20%	175 µM
CN1C(=O)C(=Cc2ccc(Sc3ccccc3)o2)C(=O)N(C)C1=O [PTF-47]	–	–	1.3 µM	0%	0%	3 µM
Cc1ccc(N2C(=O)NC(=O)C(=Cc3ccc(C)o3)C2=O)cc1 [PTF-4]	–	–	14 µM	78%	100%	111 µM
CN1C(=O)C(=Cc2ccc(-c3ccccc3C(=O)O)o2)C(=O)N(C)C1=O [PTF-43]	–	–	8.3 µM	0%	0%	6.7 µM
CN1C(=O)C(=Cc2ccc(N3CCCC3)o2)C(=O)N(C)C1=O [PTF-48]	–	–	1520 µM	0%	0%	755 µM
O=C1NC(=O)N(c2ccccc2)C(=O)C1=Cc1ccc(N2CCCCC2)o1 [PTF-61]	–	–	1500 µM	0%	0%	124 µM
O=C1NC(=O)N(c2ccccc2)C(=O)C1=Cc1ccc(N2CCCCC2)s1 [PTF-70]	–	–	6.2 µM	0%	0%	18 µM
CCOc1ccc(N2C(=O)NC(=O)C(=Cc3ccc(C)o3)C2=O)cc1 [PTF-13]	–	–	89 µM	64%	96%	236 µM

SMILES	mortality at 300 µM ([1]; Culex pipiens, 24 h, read-out: Mortality at 300 µM, Slab)	mortality at 300 µM ([2]; Culex pipiens, 24 h, read-out: Mortality at 300 µM, SR)	IC50 (G119S AChE1)	Mortality at 300 µM, Slab [1]	Mortality at 300 µM, SR [2]	IC50 (WT AChE1)
O=C1NC(=O)N(c2ccccc2)C(=O)C1=Cc1ccco1 [PTF-54]	–	–	737 µM	100%	100%	1390 µM
O=C1NC(=S)N(c2ccccc2)C(=O)C1=Cc1ccco1 [PTF-63]	–	–	98 µM	0%	0%	151 µM
CN1C(=O)C(=Cc2ccco2)C(=O)N(C)C1=O [PTF-38]	–	–	357 µM	70%	90%	1190 µM
CCc1ccc(N2C(=O)C(=Cc3ccc(C)o3)C(=O)NC2=S)cc1 [PTF-26]	–	–	16 µM	100%	65%	9 µM
COc1ccccc1N1C(=O)C(=Cc2ccc(C)o2)C(=O)NC1=S [PTF-28]	–	–	1.8 µM	0%	0%	2.1 µM
COc1ccc(OC)c(N2C(=O)NC(=O)C(=Cc3ccc(C)o3)C2=O)c1 [PTF-14]	–	–	2 µM	0%	0%	2 µM
Cc1ccc(C=C2C(=O)NC(=S)N(CC3CCCO3)C2=O)o1 (stereo not drawn) [PTF-32]	–	–	2.3 µM	0%	0%	2.1 µM
CCOP(=O)(OCC)Oc1nc(Cl)c(Cl)cc1Cl [Chlorpyrifos-oxon, reference compound]	–	–	–	100%	100%	–
C=CCN1C(=O)NC(=O)C(=Cc2ccc(C)o2)C1=O [PTF-1]	–	–	2.2 µM	0%	0%	3 µM
O=C1NC(=O)N(c2ccccc2)C(=O)C1=Cc1cccs1 [PTF-67]	–	–	11.2 µM	0%	0%	9.1 µM
CN1C(=O)C(=Cc2ccc(N3CCOCC3)o2)C(=O)N(C)C1=O [PTF-50]	–	–	145 µM	0%	0%	260 µM
CN1CCN(c2ccc(C=C3C(=O)N(C)C(=O)N(C)C3=O)o2)CC1 [PTF-52]	–	–	52 µM	0%	0%	860 µM
Cc1cccc(N2C(=O)NC(=O)C(=Cc3ccc(C)o3)C2=O)c1 [PTF-6]	–	–	4.4 µM	0%	0%	4 µM
COc1ccc(N2C(=O)C(=Cc3ccc(C)o3)C(=O)NC2=S)cc1 [PTF-27]	–	–	5.9 µM	12%	15%	1.7 µM
C=CCN1C(=O)NC(=O)C(=Cc2ccc(C)s2)C1=O [PTF-66]	–	–	51 µM	63%	100%	91.6 µM
CCOP(=O)(OCC)Oc1ccc([N+](=O)[O-])cc1 [Paraoxon, reference compound]	–	–	–	100%	100%	–
Cc1ccc(C=C2C(=O)NC(=O)N(c3ccccc3)C2=O)s1 [PTF-68]	–	–	5 µM	89%	95%	4 µM
O=C1NC(=O)N(c2ccccc2)C(=O)C1=Cc1ccc(N2CCOCC2)s1 [PTF-71]	–	–	2480 µM	0%	0%	4500 µM
